Values joined by “and” are separate entries in the source; they are usually repeats but may differ in a detail not shown here. Identical values can stand only once. “Also recorded” adds a separate entry of the source. Like-named read-outs stand apart in the source and are kept apart here.
Columns and labels:
[1] = tested on: bronchoconstriction induced by histamine; test: Histamine-induced bronchoconstriction in conscious guinea-pigs, whole body plethysmography (sGaw); type: in vivo, guinea-pig; conditions: for Duration of significant reduction of AHR after treatment: TPI-1020 0.3 mg/ml, or TPI-1020 0.3 mg/ml + salbutamol 20 μg/ml
[2] = asthmatic patients, cited from earlier work
[3] = tested on: bronchoconstriction induced by methacholine; test: Methacholine-induced bronchoconstriction in conscious guinea-pigs, whole body plethysmography (sGaw); type: in vivo, guinea-pig
Protocol: Groups of six male Dunkin-Hartley guinea-pigs, weighing 350-450 g were used throughout. Animals received food and water ad libitum and lighting was maintained in the room (22+/−2° C.) on a 12 h cycle. This work complied with the guidelines for the care and use of laboratory animals according to the Animals (Scientific Procedures) Act 1986.
Whole body plethysmography of the conscious guinea-pig was used to monitor airway function, recorded as specific airways conductance (sGaw). The method was as described by Griffiths-Johnson et al. (J. Pharmacol. Meth. 1988; 11:233-240), although a computerized data acquisition system replaced the original oscilloscope and angle resolver (Danahay et al. Clin. Exp. Allergy 1997; 28:513-522). Animals were fitted with a face mask and placed in a restrainer which was then slid into the plethysmograph chamber. The computer ran AcqKnowledge software using a Biopack data acquisition system. This system was capable of acquiring and storing data referring to the air across a pneumotachograph (Mercury FIL) as the animal breathed. The resulting change in box volume (pressure) was simultaneously measured.
Changes in air flow and box pressure were measured using UP1 and UP2 pressure transducers, respectively. The resulting waveforms could then be rapidly analysed by comparing the gradients of the flow and the box pressure waves at a point where flow tended towards zero, i.e. end tidal flow. A function of these two parameters, allowing for air pressure and the weight of the animal, gave the resulting value for specific airway conductance (sGaw). A minimum of five breaths were analysed for each animal at each time point to arrive at a mean value, which is the reported value.
In the experimental examples described herein, the reported values for sGaw measurements were taken following histamine or […] without treatment. This pre-treatment sGaw value measured after histamine or methacholine challenge, by convention, determined 100% bronchoconstriction for the animal. Following treatment with the experimental agents, including agents which are part of the subject invention, sGaw values (level of bronchoconstriction) were reported as a percentage of the pre-treatment value. Thus, a 10% post-treatment sGaw value, as compared to the 100% pre-treatment sGaw, is a 90% reduction in bronchoconstriction, or 90% reduction of airway hyperresponse (AHR). A 20% post-treatment sGaw value corresponds to an 80% reduction in bronchoconstriction or AHR. Thus, the lower the post-treatment sGaw value, the better the reduction of bronchoconstriction and AHR. For purposes of the subject invention, the more desired response is a lower sGaw value (less histamine- or methacholine-induced bronchoconstriction, and less AHR).
All drugs or vehicle were delivered as a whole body exposure chamber. […]
Tiotropium is an antimuscarinic or anticholinergic bronchodilator, different from the beta-agonist bronchodilators, such as salbutamol, described above. Baseline readings were taken on Day 1 prior to treatment (Pre-treatment) to determine 100% bronchoconstriction or AHR induced by methacholine. Recordings of sGaw were made at 0, 5 and 10 minutes after the […] (Post-treatment). The sGaw values of Day 3 are expressed as a percentage of Day 1 sGaw values following methacholine challenge (Pre-treatment), which is by definition set at 100%. Each point represents the mean+/−S.E.M. (n=6). Statistical significance was determined for p<0.05 using Student's paired t-test.
On Day 3, animals were treated with vehicle, alone, or with 1.0, 3.0, or 10.0 ug/ml of tiotropium. […] A dose of 0.1 µg/ml of tiotropium provided less than 40% reduction of AHR.

muscarinic receptors = conditions: cited from earlier work
[4] = tested on: recruitment of inflammatory cells (neutrophils); conditions: cited from earlier work
[5] = FIG. 1B, budesonide 0.44 mg/ml, equimolar to 0.63 mg/ml TPI-1020
[6] = FIG. 2B, budesonide 0.44 mg/ml, equimolar to 0.63 mg/ml TPI-1020
[7] = FIG. 3, salbutamol 30 μg/ml, 30 mins before histamine
[8] = FIG. 3, salbutamol 30 μg/ml, 60 mins before histamine
[9] = FIG. 3, salbutamol 30 μg/ml, 90 mins before histamine
[10] = FIG. 2D, TPI-1020 0.11 mMl (0.1 mg/ml in text)
[11] = FIG. 3, TPI-1020 0.3 mg/ml, 30 mins before histamine
[12] = FIG. 3, TPI-1020 0.3 mg/ml, 60 mins before histamine
[13] = FIG. 3, TPI-1020 0.3 mg/ml, 90 mins before histamine

CC(=O)N[C@H](C(=O)O)C(C)(C)SN=O (racemic) [SNAP, S-nitroso-N-acetylpenicillamine]
% Inhibition ([1]; FIG. 2C, SNAP 0.15 mg/ml): 20% and 19%
Post-treatment (% sGaw) ([1]; FIG. 2C, SNAP 0.15 mg/ml): −81.2 % sGaw
% Inhibition ([1]; FIG. 2C, SNAP 0.31 mg/ml): 47%
Post-treatment (% sGaw) ([1]; FIG. 2C, SNAP 0.31 mg/ml): −52.6 % sGaw
% Inhibition ([1]; FIG. 2D, SNAP 0.7 mM): 19%
Post-treatment (% sGaw) ([1]; FIG. 2D, SNAP 0.7 mM): −81.2 % sGaw

CCCC1O[C@@H]2C[C@H]3[C@@H]4CCC5=CC(=O)C=C[C@]5(C)[C@H]4[C@@H](O)C[C@]3(C)[C@]2(C(=O)CO)O1 (stereo partly drawn) [Budesonide, budesonide]
% Inhibition [1, 5]: 35%
Post-treatment (% sGaw) [1, 5]: −65.2 % sGaw
% Inhibition [1, 6]: 35%
Post-treatment (% sGaw) [1, 6]: −65.2 % sGaw
% Inhibition ([1]; FIG. 2B, budesonide 0.44 mg/ml, equimolar to 0.63 mg/ml TPI-1020, listed as budesonide): 40%
% Inhibition ([1]; FIG. 2D, budesonide 0.11 mM): 18%
Post-treatment (% sGaw) ([1]; FIG. 2D, budesonide 0.11 mM): −81.8 % sGaw

COc1ccc(CC(C)NCC(O)c2ccc(O)c(NC=O)c2)cc1 (stereo not drawn) [Formoterol, formoterol]
Duration of bronchodilation ([2]; dose 6 μg): 8 h
Duration of bronchodilation ([2]; dose 12 μg): 10 h
Duration of bronchodilation ([2]; dose 24 μg): 12 h

CC(C)(C)NCC(O)c1ccc(O)c(CO)c1 (stereo not drawn) [Salbutamol, salbutamol]
% Inhibition ([1]; FIG. 1C, salbutamol 3 μg/ml): 12%
Post-treatment (% sGaw) ([1]; FIG. 1C, salbutamol 3 μg/ml): −87.6 % sGaw
% Inhibition ([1]; FIG. 1C, salbutamol 3 μg/ml, listed as salbutamol): no significant inhibition effect
% Inhibition ([1]; FIG. 1C, salbutamol 10 μg/ml): 3%
Post-treatment (% sGaw) ([1]; FIG. 1C, salbutamol 10 μg/ml): −96.7 % sGaw
% Inhibition ([1]; FIG. 1C, salbutamol 10 μg/ml, listed as salbutamol): no significant inhibition effect
% Inhibition ([1]; FIG. 1C, salbutamol 20 μg/ml): 20%
Post-treatment (% sGaw) ([1]; FIG. 1C, salbutamol 20 μg/ml): −80.1 % sGaw
% Inhibition ([1]; FIG. 1C, salbutamol 30 μg/ml): 84%
Post-treatment (% sGaw) ([1]; FIG. 1C, salbutamol 30 μg/ml): −15.6 % sGaw
% Inhibition ([1]; FIG. 1C, salbutamol 30 μg/ml, listed as salbutamol): 85%
% Inhibition ([1]; FIG. 2D, salbutamol 20 μg/ml): 11%
Post-treatment (% sGaw) ([1]; FIG. 2D, salbutamol 20 μg/ml): −89.0 % sGaw
% Inhibition ([1]; FIG. 2D, salbutamol 20 μg/ml, listed as salbutamol): insignificant reduction of AHR; also recorded: do not significantly reduce AHR
% Inhibition [1, 7]: 84%
Post-treatment (% sGaw) [1, 7]: −15.6 % sGaw
% Inhibition [1, 8]: 47%
Post-treatment (% sGaw) [1, 8]: −52.7 % sGaw
% Inhibition [1, 9]: 9%
Post-treatment (% sGaw) [1, 9]: −91.4 % sGaw
Duration of significant reduction of AHR after treatment ([1]; FIG. 3, salbutamol 30 μg/ml): 60 min

C[N+]1(C)[C@@H]2C[C@@H](OC(=O)C(O)(c3cccs3)c3cccs3)C[C@H]1[C@@H]1O[C@@H]12 [Tiotropium, tiotropium]
% Inhibition ([3]; FIG. 5A, tiotropium 1 μg/ml): 35%
Post-treatment (% sGaw) ([3]; FIG. 5A, tiotropium 1 μg/ml): −65.2 % sGaw
% Inhibition ([3]; FIG. 5A, tiotropium 3 μg/ml): 73%
Post-treatment (% sGaw) ([3]; FIG. 5A, tiotropium 3 μg/ml): −26.7 % sGaw
% Inhibition ([3]; FIG. 5A, tiotropium 3 μg/ml, listed as tiotropium): about 75%
% Inhibition ([3]; FIG. 5A, tiotropium 10 μg/ml): ~85%
Post-treatment (% sGaw) ([3]; FIG. 5A, tiotropium 10 μg/ml): −14.9 % sGaw
% Inhibition ([3]; FIG. 5C, tiotropium 1 μg/ml): 35%
Post-treatment (% sGaw) ([3]; FIG. 5C, tiotropium 1 μg/ml): −65.2 % sGaw
Selectivity for specific muscarinic receptors (muscarinic receptors): does not display selectivity for specific muscarinic receptors

budesonide 21-(4′-nitrooxymethyl)benzoate [TPI-1020]
Release in the lung of key mediators of inflammation ([4]; pre-clinical studies): significantly reduce release in the lung of key mediators of inflammation
Recruitment of inflammatory cells (neutrophils) ([4]; rodent models of airway inflammation and pulmonary disease): significantly block the recruitment of inflammatory cells (neutrophils)
Post-treatment (% sGaw) ([3]; FIG. 5B, TPI-1020 0.1 mg/ml, 30 mins before methacholine): −94.0 % sGaw
Post-treatment (% sGaw) ([3]; FIG. 5B, TPI-1020 0.1 mg/ml, 90 mins before methacholine): −86.9 % sGaw
Post-treatment (% sGaw) ([3]; FIG. 5B, TPI-1020 0.3 mg/ml, 30 mins before methacholine): −18.4 % sGaw
Post-treatment (% sGaw) ([3]; FIG. 5B, TPI-1020 0.3 mg/ml, 90 mins before methacholine): −65.3 % sGaw
Post-treatment (% sGaw) ([3]; FIG. 5C, TPI-1020 0.1 mg/ml): −86.9 % sGaw
% Inhibition ([1]; FIG. 1A, TPI-1020 0.1 mg/ml inhaled 15 min before 3 mM histamine): 20% and 21%
% Inhibition ([1]; FIG. 1A, TPI-1020 0.3 mg/ml): 48%
% Inhibition ([1]; FIG. 1A, TPI-1020 0.63 mg/ml): 95%
Post-treatment (% sGaw) ([1]; FIG. 2A, TPI-1020 0.1 mg/ml): −83.2 % sGaw
% Inhibition ([1]; FIG. 2A, TPI-1020 0.3 mg/ml): 48% and 50%
Post-treatment (% sGaw) ([1]; FIG. 2A, TPI-1020 0.3 mg/ml): −49.5 % sGaw
% Inhibition ([1]; FIG. 2A, TPI-1020 0.63 mg/ml): 80% and 72%
Post-treatment (% sGaw) ([1]; FIG. 2A, TPI-1020 0.63 mg/ml): −27.9 % sGaw
% Inhibition [1, 10]: insignificant reduction of AHR
Post-treatment (% sGaw) [1, 10]: −83.2 % sGaw
% Inhibition [1, 11]: 50%
Post-treatment (% sGaw) [1, 11]: −49.5 % sGaw
% Inhibition [1, 12]: 7%
Post-treatment (% sGaw) [1, 12]: −92.7 % sGaw
% Inhibition [1, 13]: −20%
Post-treatment (% sGaw) [1, 13]: −120.1 % sGaw
Duration of significant reduction of AHR after treatment ([1]; FIG. 3, salbutamol 30 μg/ml): 30 min
% Inhibition ([1]; FIG. 4B, TPI-1020 0.1 mg/ml): 17%
Post-treatment (% sGaw) ([1]; FIG. 4B, TPI-1020 0.1 mg/ml): −83.2 % sGaw
% Inhibition ([1]; FIG. 4B, TPI-1020 0.3 mg/ml): −20%
Post-treatment (% sGaw) ([1]; FIG. 4B, TPI-1020 0.3 mg/ml): −120.3 % sGaw

From patent US20090087425A1, “Combination of nitroderivatized steroid and bronchodilator for treating respiratory disease” (Topigen Pharmaceuticals Inc., priority 2007, published 2009)
